PubChem BioAssay (NCI)
Values joined by “and” are separate entries in the source; they are usually repeats but may differ in a detail not shown here. Equal entries are not always repeated.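 Cells were grown in 96-well plates and exposed to each compound for 48 hours at five concentrations; endpoints were interpolated linearly between bracketing concentrations, or set to the highest concentration if not reached. GI50: concentration for 50% inhibition of growth. TGI is the concentration that stops growth completely.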

Assays:
Assay in all cases: DTP human tumour cell line panel, 48 h
A498 renal = tested on: A498 renal
ACHN renal = tested on: ACHN renal
HOP-92 NSCLC = tested on: HOP-92 NSCLC
HT29 colon = tested on: HT29 colon
LOX IMVI melanoma = tested on: LOX IMVI melanoma
NCI-H23 lung = tested on: NCI-H23 lung
SW-620 colon = tested on: SW-620 colon
TK-10 renal = tested on: TK-10 renal
U251 CNS = tested on: U251 CNS
UO-31 renal = tested on: UO-31 renal

Row | Structure (SMILES) | GI50 (A498 renal) | TGI (A498 renal) | GI50 (ACHN renal) | TGI (ACHN renal) | GI50 (HOP-92 NSCLC) | TGI (HOP-92 NSCLC) | GI50 (HT29 colon) | TGI (HT29 colon) | GI50 (LOX IMVI melanoma) | TGI (LOX IMVI melanoma) | GI50 (NCI-H23 lung) | TGI (NCI-H23 lung) | GI50 (SW-620 colon) | TGI (SW-620 colon) | GI50 (TK-10 renal) | TGI (TK-10 renal) | GI50 (U251 CNS) | TGI (U251 CNS) | GI50 (UO-31 renal) | TGI (UO-31 renal)
1 | COC1=CC(c2ccc[nH]2)=N/C1=C\c1[nH]c(C)c(C(=O)OCc2ccccc2)c1C | 0.169 µM | 1.02 µM | 0.081 µM | 1.15 µM | 0.0671 µM | 0.431 µM | 0.0359 µM | 1.27 µM | 0.0189 µM | 0.042 µM | 0.141 µM | 1.74 µM | 0.0346 µM | 1.21 µM | 0.0854 µM | 1.91 µM | 0.0616 µM | 1.26 µM | 0.144 µM | 0.336 µM
2 | CCCN(CCC)CCCNCc1cc(I)cc(C)c1O | 11.6 µM | 23.8 µM | 17.1 µM | 34.8 µM | 5.04 µM | 18.6 µM | 7.21 µM | 20 µM | 14.6 µM | 27.7 µM | 15.2 µM | 33.5 µM | 14.3 µM | 27.4 µM | 16.1 µM | 30.6 µM | 15.9 µM | 29.4 µM | 17.2 µM | 53.1 µM
3 | COc1ccc2c(c1)C(=O)c1c-2n(CCCN)c(=O)c2ccccc12 | 0.836 µM | 2.21 µM | < 0.0134 µM | 0.0408 µM | 0.181 µM | 1.43 µM | < 0.0298 µM | 0.188 µM | 0.0102 µM | 0.0786 µM | 0.0497 µM | 1.02 µM | < 0.01 µM | 1.14 µM | 0.116 µM | 0.98 µM | < 0.0173 µM | 0.271 µM | 0.0417 µM | 0.486 µM
4 | C=CCC1OC(C)(C)Oc2ccc(OCOCCOC)cc21 (stereo not drawn) | – | > 100 µM | – | > 100 µM | – | > 100 µM | – | > 100 µM | – | > 100 µM | – | > 100 µM | – | > 100 µM | – | > 100 µM | – | > 100 µM | – | > 100 µM
5 | CO[C@H](C(=O)[C@@H](O)[C@@H](C)O)[C@@H]1Cc2cc3cc(O[C@H]4C[C@@H](O[C@H]5C[C@@H](O)[C@H](O)C(C)O5)[C@H](O)C(C)O4)c(C)c(O)c3c(O)c2C(=O)[C@H]1O[C@H]1C[C@@H](O[C@H]2C[C@@H](O[C@H]3C[C@@H](OC)[C@H](O)C(C)O3)[C@@H](O)C(C)O2)C(O)(O)C(C)O1 (stereo partly drawn) | 0.0198 µM | 0.115 µM | 0.191 µM | > 25 µM | 0.103 µM | > 6.49 µM | 0.212 µM | 5.01 µM | 0.0745 µM | 3.68 µM | 0.176 µM | 4.22 µM | 0.164 µM | > 25 µM | 0.15 µM | > 24.1 µM | 0.0329 µM | > 25 µM | 0.209 µM | 2.84 µM
6 | COc1cc(CCc2cccnc2)cc(OC)c1OC | – | > 100 µM | – | > 100 µM | – | > 100 µM | – | > 100 µM | – | > 100 µM | – | > 100 µM | – | > 100 µM | – | > 100 µM | – | > 100 µM | – | > 100 µM
7 | C[n+]1c(/C=C\C=C\N2CCCCC2)sc2ccccc21 | 0.293 µM | 9.04 µM | 4.07 µM | > 53.4 µM | 0.0758 µM | 2.16 µM | 0.321 µM | 11.7 µM | 0.481 µM | 12.9 µM | 0.367 µM | 18.3 µM | 0.513 µM | 14.9 µM | 2.19 µM | 16.5 µM | 0.291 µM | 15 µM | 13.5 µM | > 71.3 µM
8 | CN1CCc2cc3c(cc2C1O)OCO3 (stereo not drawn) | 22.9 µM and > 100 µM | 39.9 µM and > 100 µM | 19.2 µM and > 100 µM | 36.2 µM and > 100 µM | 20.8 µM and > 100 µM | 39 µM and > 100 µM | 21.4 µM and > 100 µM | 47.1 µM and > 100 µM | 17.4 µM and > 100 µM | 40.3 µM and > 100 µM | – | 32.1 µM and > 100 µM | 16.6 µM and > 100 µM | 33.8 µM and > 100 µM | 19.7 µM and > 100 µM | 39.6 µM and > 100 µM | – | 22.9 µM and > 100 µM | 17.4 µM and > 100 µM | 37.4 µM and > 100 µM
9 | NS(=O)(=O)c1ccc(NC(=O)c2ccc(NC3=C(Cl)C(=O)N(Cc4ccccc4)C3=O)cc2)cc1 | 14.9 µM | 32.6 µM | 13.7 µM | 26.6 µM | 10.9 µM | 31.3 µM | 5.92 µM | 17 µM | 3.35 µM | 39 µM | 3.42 µM | 14.3 µM | 2.69 µM | 7.78 µM | > 100 µM | > 100 µM | 5.37 µM | 24.7 µM | 79.3 µM | > 100 µM
10 | CN1C(=O)c2c(ccc3c2OCO3)C2C(O)Cc3cc4c(cc3C21)OCO4 (stereo not drawn) | – | 9.29 µM | – | > 100 µM | – | > 100 µM | – | 10.1 µM | – | > 100 µM | – | > 100 µM | – | > 100 µM | – | > 100 µM | – | > 100 µM | – | > 100 µM
11 | Cc1ccc(S(=O)(=O)N/N=C/c2oc(-c3cccc([N+](=O)[O-])c3)c(-c3cccc([N+](=O)[O-])c3)c2[N+](=O)[O-])cc1 | – | > 100 µM | – | > 100 µM | – | > 100 µM | – | > 100 µM | – | 33.5 µM | – | > 100 µM | – | > 100 µM | – | > 100 µM | – | > 100 µM | – | 32.3 µM
12 | Cc1ccccc1NC(=S)Nc1ccccn1 | > 100 µM | > 100 µM | > 100 µM | > 100 µM | 10.6 µM | > 100 µM | > 100 µM | > 100 µM | > 100 µM | > 100 µM | 85.3 µM | > 100 µM | > 100 µM | > 100 µM | > 100 µM | > 100 µM | > 100 µM | > 100 µM | > 100 µM | > 100 µM
13 | CCC[CH2][Sn]([CH2]CCC)([O]C(=O)c1c(F)cccc1F)[O]C(=O)c1c(F)cccc1F | 0.967 µM | 2.16 µM | 0.763 µM | 2.01 µM | 0.44 µM | 1.81 µM | 1.52 µM | 2.87 µM | 0.353 µM | 1.41 µM | 0.439 µM | 1.6 µM | 0.32 µM | 1.23 µM | 0.956 µM | 2.13 µM | 0.443 µM | 1.6 µM | 1.31 µM | 2.59 µM
14 | CCN(CC)CCNC(=O)c1ccccc1NC(=O)C(=O)Nc1ccccc1C(=O)NCCN(CC)CC | – | > 100 µM | – | > 100 µM | – | 98.5 µM | – | > 100 µM | – | 73.6 µM | – | > 100 µM | – | 42 µM | – | > 100 µM | – | > 100 µM | – | > 100 µM
